The values below come from PubChem BioAssay AID330 (DTP/NCI, 2004).

For this experiment, the system named is P388 leukemia ip, CD2F1 mice, survival T/C. The experiment in a line: NCI In Vivo Anticancer Drug Screen. Data for tumor model P388 Leukemia (intraperitoneal) in CD2F1 (CDF1) mice. The following applies: endpoint: median survival time, higher = longer survival. In short, it runs like this:
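Mice carrying the transplanted tumor received test compound or vehicle. Survival was recorded in each group, and the value is the treated-group measurement divided by that of the vehicle-treated control group.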

Setting [1] is: dose: 50.0 mg/kg/injection, schedule: Q01DX009 (ip), vehicle: Klucel (hydroxypropylcellulose) (HPC).
Setting [2] is: dose: 100.0 mg/kg/injection, schedule: Q01DX009 (ip), vehicle: Klucel (hydroxypropylcellulose) (HPC).
Setting [3] is: dose: 50.0 mg/kg/injection, schedule: Q01DX009 (ip), vehicle: saline with Tween-80.
Setting [4] is: dose: 100.0 mg/kg/injection, schedule: Q01DX009 (ip), vehicle: saline with Tween-80.
The mark [5] stands for this setting: dose: 200.0 mg/kg/injection, schedule: Q01DX009 (ip), vehicle: saline with Tween-80.
The mark [6] stands for this setting: dose: 12.5 mg/kg/injection, schedule: Q01DX001 (ip), vehicle: Klucel (hydroxypropylcellulose) (HPC).
The mark [7] stands for this setting: dose: 50.0 mg/kg/injection, schedule: Q01DX005 (ip), vehicle: Klucel (hydroxypropylcellulose) (HPC).
[8] abbreviates: dose: 100.0 mg/kg/injection, schedule: Q01DX005 (ip), vehicle: Klucel (hydroxypropylcellulose) (HPC).
Setting [9] is: dose: 200.0 mg/kg/injection, schedule: Q01DX005 (ip), vehicle: Klucel (hydroxypropylcellulose) (HPC).

Where “and” joins values, the source holds several entries; their conditions need not be identical. Equal entries are not always repeated. Toxic doses and inconclusive results are not listed.

In the case of `O=C1OC(=O)C23Cc4ccccc4CC12CC1Cc2ccccc2CC1C3` (stereo unspecified), the T/C under setting [1] was 100 % of control; the T/C under setting [2] is 88 % of control; the T/C (dose: 200.0 mg/kg/injection, schedule: Q01DX009 (ip), vehicle: Klucel (hydroxypropylcellulose) (HPC)) is 94 % of control.

For `COc1cc(N=C=S)ccc1NC(=O)c1cc(Br)cc(Br)c1O`, the T/C is 106 % of control (dose: 100.0 mg/kg/injection, schedule: Q01DX001 (ip), vehicle: Klucel (hydroxypropylcellulose) (HPC)); 101 % of control (dose: 200.0 mg/kg/injection, schedule: Q01DX001 (ip), vehicle: Klucel (hydroxypropylcellulose) (HPC)); 106 % of control (dose: 400.0 mg/kg/injection, schedule: Q01DX001 (ip), vehicle: Klucel (hydroxypropylcellulose) (HPC)).

Turning to `CC(C)[CH2][Sn]1([CH2]C(C)C)[O]CCNCC[O]1`, the T/C reads like this: (dose: 0.78 mg/kg/injection, schedule: Q01DX009 (ip), vehicle: saline) 105 % of control; (dose: 1.56 mg/kg/injection, schedule: Q01DX009 (ip), vehicle: saline) 109 % of control; (dose: 3.12 mg/kg/injection, schedule: Q01DX009 (ip), vehicle: saline) 88 % of control.

On to `Cc1cc(O)c(C=O)c2c1C(=O)Oc1c(CO)c(O)c3c(c1O2)C(O)OC3=O` (stereo unspecified), for which the T/C under setting [3] was 124 % of control.

As to `c1cncc(-c2c3ccccc3cc3ccc4ccccc4c23)c1`, the T/C by setting is: (dose: 50.0 mg/kg/injection, schedule: Q01DX005 (ip), vehicle: saline with Tween-80) 104 % of control; (dose: 100.0 mg/kg/injection, schedule: Q01DX005 (ip), vehicle: saline with Tween-80) 103 % of control; (dose: 200.0 mg/kg/injection, schedule: Q01DX005 (ip), vehicle: saline with Tween-80) 100 % of control.

As for `Cc1ccc(CC(=O)O)cc1C`, the T/C is, setting by setting: (dose: 100.0 mg/kg/injection, schedule: Q04DX003 (ip), vehicle: saline with Tween-80) 190 % of control; (dose: 200.0 mg/kg/injection, schedule: Q04DX003 (ip), vehicle: saline with Tween-80) 113 % of control; (dose: 400.0 mg/kg/injection, schedule: Q04DX003 (ip), vehicle: saline with Tween-80) 113 % of control.

With `C1=Nc2ccccc2Oc2ccc3ccccc3c21`, the T/C is 107 % of control under setting [3], 99 % of control under setting [4] and 107 % of control under setting [5].

As for `Cn1nc(-c2ccc(Cl)c(Cl)c2)nc2c(=O)n(C)c(=O)nc1-2`, the T/C is, setting by setting: under setting [6], 102 % of control; (dose: 25.0 mg/kg/injection, schedule: Q01DX001 (ip), vehicle: Klucel (hydroxypropylcellulose) (HPC)) 107 % of control; (dose: 50.0 mg/kg/injection, schedule: Q01DX001 (ip), vehicle: Klucel (hydroxypropylcellulose) (HPC)) 103 % of control and 114 % of control.

Consider `CCCC(=O)O.CCCC(=O)O.CCCC(=O)O.CCCC(=O)O.O=P1(N(CCCl)CCCl)NCCCO1.O=P1(N(CCCl)CCCl)NCCCO1.[Rh].[Rh]` (stereo unspecified), for which the T/C is, setting by setting: (dose: 0.13 mg/kg/injection, schedule: Q01DX009 (ip), vehicle: olive oil, sesame oil, peanut oil) 103 % of control; (dose: 0.25 mg/kg/injection, schedule: Q01DX009 (ip), vehicle: olive oil, sesame oil, peanut oil) 112 % of control; (dose: 0.5 mg/kg/injection, schedule: Q01DX009 (ip), vehicle: olive oil, sesame oil, peanut oil) 101 % of control; (dose: 1.0 mg/kg/injection, schedule: Q01DX009 (ip), vehicle: olive oil, sesame oil, peanut oil) 117 % of control.

On to `NCCCCNC(c1ccccc1)C(O)c1ccccc1` (stereo unspecified), for which the T/C runs as follows: under setting [1], 100 % of control; under setting [2], 99 % of control.

In the case of `CCOC(=O)/C(C#N)=C/C=C1/C=CC=CN1N=C(SC)SC`, the T/C runs as follows: (dose: 100.0 mg/kg/injection, schedule: Q01DX001 (ip), vehicle: saline with Tween-80) 95 % of control; (dose: 200.0 mg/kg/injection, schedule: Q01DX001 (ip), vehicle: saline with Tween-80) 86 % of control; (dose: 400.0 mg/kg/injection, schedule: Q01DX001 (ip), vehicle: saline with Tween-80) 87 % of control.

As to `NC(=S)c1cccc(/C=N/Nc2ccccc2)n1`, the T/C (dose: 100.0 mg/kg/injection, schedule: Q04DX003 (ip), vehicle: Klucel (hydroxypropylcellulose) (HPC)) is 101 % of control; the T/C (dose: 200.0 mg/kg/injection, schedule: Q04DX003 (ip), vehicle: Klucel (hydroxypropylcellulose) (HPC)) is 99 % of control; the T/C (dose: 400.0 mg/kg/injection, schedule: Q04DX003 (ip), vehicle: Klucel (hydroxypropylcellulose) (HPC)) is 97 % of control.

For `O=C(O)c1cccc(SS(=O)(=O)c2cccc(C(=O)O)c2)c1`, the T/C was 109 % of control under setting [7], 112 % of control under setting [8] and 107 % of control under setting [9].

With `O=C1C2=Nc3ccccc3C(O)N2c2ccccc21` (stereo unspecified), the T/C runs as follows: (dose: 12.5 mg/kg/injection, schedule: Q01DX009 (ip), vehicle: saline with Tween-80) 88 % of control; (dose: 25.0 mg/kg/injection, schedule: Q01DX009 (ip), vehicle: saline with Tween-80) 89 % of control; under setting [3], 90 % of control and 97 % of control; under setting [4], 93 % of control; under setting [5], 94 % of control.

Consider `CC(C)(C)NC=C(C#N)C#N`, for which the T/C under setting [3] is 86 % of control.

As to `Cc1nc(N)nc(N)c1CCCc1ccccc1`, the T/C by setting is: (dose: 3.12 mg/kg/injection, schedule: Q01DX001 (ip), vehicle: Klucel (hydroxypropylcellulose) (HPC)) 107 % of control; (dose: 6.25 mg/kg/injection, schedule: Q01DX001 (ip), vehicle: Klucel (hydroxypropylcellulose) (HPC)) 101 % of control; under setting [6], 105 % of control; (dose: 12.5 mg/kg/injection, schedule: Q01DX001 (ip), vehicle: saline) 100 % of control.

For the compound `C1CCCC2(CC1)OCCO2`, the T/C reads like this: (dose: 100.0 mg/kg/injection, schedule: Q04DX003 (ip), vehicle: saline) 101 % of control; (dose: 200.0 mg/kg/injection, schedule: Q04DX003 (ip), vehicle: saline) 97 % of control; (dose: 400.0 mg/kg/injection, schedule: Q04DX003 (ip), vehicle: saline) 98 % of control.

For `CCOC(=O)C1=CNc2c(C#N)cnn2C1(C(=O)OCC)c1cn(C)c2ccccc12` (stereo unspecified), the T/C runs as follows: (dose: 6.25 mg/kg/injection, schedule: Q01DX005 (ip), vehicle: saline with Tween-80) 99 % of control; (dose: 12.5 mg/kg/injection, schedule: Q01DX005 (ip), vehicle: saline with Tween-80) 95 % of control; (dose: 25.0 mg/kg/injection, schedule: Q01DX005 (ip), vehicle: saline with Tween-80) 87 % of control.

`CC(=O)N1CCC23c4ccccc4N(C)C2CC(=O)CC13` (stereo unspecified): the T/C (dose: 8.75 mg/kg/injection, schedule: Q01DX005 (ip), vehicle: Klucel (hydroxypropylcellulose) (HPC)) was 97 % of control; the T/C (dose: 17.5 mg/kg/injection, schedule: Q01DX005 (ip), vehicle: Klucel (hydroxypropylcellulose) (HPC)) is 98 % of control; the T/C (dose: 35.0 mg/kg/injection, schedule: Q01DX005 (ip), vehicle: Klucel (hydroxypropylcellulose) (HPC)) was 103 % of control.

Take `O=C1/C(=C/c2cccc(O)c2O)SC(=S)N1Cc1ccco1`: the T/C was 102 % of control under setting [7], 106 % of control under setting [8] and 103 % of control under setting [9].

Consider `CC1SCCCS1`, for which the T/C is 98 % of control (dose: 50.0 mg/kg/injection, schedule: Q01DX009 (ip), vehicle: saline); 98 % of control (dose: 100.0 mg/kg/injection, schedule: Q01DX009 (ip), vehicle: saline); 97 % of control (dose: 200.0 mg/kg/injection, schedule: Q01DX009 (ip), vehicle: saline); 97 % of control (dose: 400.0 mg/kg/injection, schedule: Q01DX009 (ip), vehicle: saline).

Regarding `N#Cc1ccccc1N1CCCC1=O`, the T/C by setting is: (dose: 100.0 mg/kg/injection, schedule: Q04DX002 (ip), vehicle: saline) 90 % of control; (dose: 200.0 mg/kg/injection, schedule: Q04DX002 (ip), vehicle: saline) 102 % of control; (dose: 400.0 mg/kg/injection, schedule: Q04DX002 (ip), vehicle: saline) 97 % of control.
